Assay results reported in US20240000721A1, “COMPOSITIONS FOR REDUCTION OF OXIDATIVE STRESS, IMPROVEMENT TO THE IMMUNE SYSTEM, PROMOTION OF HEALTHY CARTILAGE AND/OR ALLEVIATION OF PAIN ACCOMPANYING INFLAMMATORY DISEASES IN RUMINANTS” (DSM IP Assets B.V., priority 2018, published 2024).

Test system: Brahman steers (Bos indicus)
Assay: Rumen metabolites in rumen fluid of fistulated Brahman steers, quantified by NMR
Assay type: in vivo
Conditions: for Dimethylsulfone in rumen fluid / Trimethylamine in rumen fluid: rumen fluid 3 h post feeding
From the text: Eight fistulated Brahman steers (Bos indicus) were randomly allocated to two groups (4 animals per group) and received a forage ad libitum diet (Rhode grass hay (Chloris […]), chemical composition: DM, 917 g/kg fresh matter; in g/kg of DM: OM, 806; CP, 169; NDF, 661; ADF, 359; ADL, 46; ash, 116 and GE 17.38 MJ/kg). […] Animals were adapted to the diet over a 21 d period. After that initial period, experimental animals were placed into individual pens in an animal house for the measurement of intakes (10 d) and were treated with cyclodextrin (2 g/100 kg LW) and molasses (60 mL/d). On the last 2 days animals were placed into open-circuit respiration chambers for collection of rumen samples. […] PDMN was provided to the animals mixed with molasses (60 mL/day, molasses were previously diluted in water: 1:4 water:molasses) and mixed with the hay at three different times: 0 h, 3 h and 5 h after the feed was offered. […] On days 20 and 21 of treatment both groups were placed in open-circuit respiration chambers for rumen fluid collection. Rumen fluid samples (approx. 60 mL per animal) were collected using a probe with 2 layers of cheesecloth through the cannula of the animal at 3 h post feeding, during confinement in respiration chambers to determine rumen metabolites.

[1] = 21 days treatment compared with control period

ClC(Cl)Cl [Chloroform, chloroform, reference compound]
Dimethylsulfone in rumen fluid (1.6 g chloroform-CD/100 kg LW for 21 days, control period 21): 80 μmol/L rumen fluid
Trimethylamine in rumen fluid (1.6 g chloroform-CD/100 kg LW for 21 days, control period 564): 828 μmol/L rumen fluid
Effect on the methyl donor dimethylsulfone and triethylamine in rumen fluid (in words) [1]: statistically significant increase

O=[N+]([O-])OCCCO [PDMN, 1,3-propanediol mononitrate]
Dimethylsulfone in rumen fluid (2.5 g PDMN/animal/day (10% on silicon dioxide) for 21 days, control period 20): 113 μmol/L rumen fluid
Trimethylamine in rumen fluid (2.5 g PDMN/animal/day (10% on silicon dioxide) for 21 days, control period 334): 1242 μmol/L rumen fluid
Effect on dimethylsulfone and trimethylamine in rumen fluid (in words) [1]: statistically significant increase
Effect on dimethylsulfone and trimethylamine in rumen fluid (in words) (21 days treatment compared with control period, listed as propanediolediol mononitrate): particularly effective
